The source of these data is patent publication US8476197B2, “Aminopropenoates as fungicides” (priority 2009, dated 2013).

SMILES strings stand for the structures. Marks after values point to notes of the source that are not given here.

For one series the following is noted: pH 2.3.
As usually defined, the Log P is the decadic logarithm of the partition coefficient of the neutral form, usually between octanol and water. Read a low Log P as a more hydrophilic compound. As to `CCCCCCC(C)NC(=C(C#N)C(=O)OCC)c1cccnc1Cl` (racemic) [Compound 819], the “Log P” value is recorded as 4.53.
Take `CC(C)C(C)NC(=O)C(C#N)=C(NC(C)C(C)C)c1cccnc1Cl` (stereo not drawn) [Compound 1283]: the “Log P” value is 4.02^[c]; 4.02^[b].
In the case of `CC(C)C(C)NC(=C(C#N)C(=O)NC1CS(=O)(=O)C1)c1cccnc1Cl` (stereo not drawn) [Compound 1469], the “Log P” value was 2.28.

Still in this series, the particulars now being: pH 2.7.
Take `CCOC(=O)C(C#N)=C(Nc1ccc(C(C)C)cc1)c1cccnc1Cl` [Compound 1154]: the lipophilicity (Log P) is 4.08^[a].
Consider `CCOC(=O)C(C#N)=C(NC(C)Cc1cc2ccccc2[nH]1)c1sc(C)nc1C(F)(F)F` (racemic) [Compound 145], for which the lipophilicity (Log P) is 3.85^[a].
Consider `CCOC(=O)C(C#N)=C(NC1CC1CC)c1cccnc1Cl` (stereo not drawn) [Compound 1190], for which the log partition coefficient (Log P) was 3.23^[a].
Take `COC(=O)C(C#N)=C(NC(C)c1ccccc1)c1sc(C)nc1C(F)(F)F` (mixture of isomers) [Compound 444]: the log partition coefficient (Log P) is 3.62^[a].
Consider `CCOC(=O)C(C#N)=C(Nc1ccc(SC)cc1)c1cn(C)nc1C(F)F` [Compound 474], for which the log partition coefficient (Log P) is 3.19^[a].
On the same count and under the same terms, then `CCOC(=O)C(C#N)=C(NC(C)c1c(Cl)cccc1Cl)c1cccnc1Cl` (stereo not drawn) [Compound 1649], with 3.8^[a]; and `CCOC(=O)C(C#N)=C(NC(C)C(C)C)c1c(C(F)F)nn(C)c1Cl` (stereo not drawn) [Compound 954], with 3.63^[a].
On the same count and under the same terms, then `CCOC(=O)C(C#N)=C(NC(C)C(F)(F)F)c1cc(Cl)sc1Cl` (racemic) [Compound 810], with 4.11^[a].
As for `CCOC(=O)C(C#N)=C(NC(C)COc1c(C)cccc1C)c1cn(C)nc1C(F)F` (stereo not drawn) [Compound 684], the lipophilicity (Log P) was 3.96^[a].
With `C=CCCCC(C=C)NC(=C(C#N)C(=O)OCC)c1ccsc1I` (stereo not drawn) [Compound 1024], the log partition coefficient (Log P) was 4.65^[a].
As to `CCOC(=O)C(C#N)=C(NC1CCC1)c1cccnc1C(F)F` [Compound 799], the “Log P” value is 2.76^[a].
For the compound `CCOC(=O)C(C#N)=C(NC(C)Cc1c[nH]c2ccccc12)c1sccc1Br` (stereo not drawn) [Compound 91], the log partition coefficient (Log P) was 3.8^[a].
As for `CCOC(=O)C(C#N)=C(Nc1ccccc1SCC)c1cn(C)nc1C(F)F` [Compound 1228], the “Log P” value is 3.46^[a].
Turning to `CCOC(=O)C(C#N)=C(Nc1cccc2nsnc12)c1cccnc1Cl` [Compound 1556], the “Log P” value is 3.17^[a].
Turning to `C=CCOC(=O)C(C#N)=C(NC(C)c1nccs1)c1cccnc1Cl` (stereo not drawn) [Compound 1490], the “Log P” value was 2.62^[a].
For the compound `CCOC(=O)C(C#N)=C(NC(C(=O)OC)C(C)C)c1ccsc1Br` (stereo not drawn) [Compound 715], the “Log P” value was 3.48^[a].
Consider `C=CCSc1ccccc1NC(=C(C#N)C(=O)OCC)c1cc(C)oc1C` [Compound 420], for which the “Log P” value was 4.25^[a].
Turning to `C=CCNC(=O)C(C#N)=C(NC(C)C(C)C)c1cn(C)nc1C(F)F` (stereo not drawn) [Compound 1008], the log partition coefficient (Log P) is 2.68^[a].
As to `CC(NC(=C(C#N)C(=O)NCC(F)(F)F)c1cccnc1Cl)c1nccs1` (stereo not drawn) [Compound 324], the “Log P” value was 2.44^[a].
The same measure, in the same setting: the value for `CCOC(=O)C(C#N)=C(NC(c1cc2ccccc2s1)C(F)(F)F)c1c(C)nn(C)c1F` (racemic) [Compound 51] was 4.25^[a]; that for `CCOC(=O)C(C#N)=C(Nc1ccccc1S(C)(=O)=O)c1cc(C)oc1C` [Compound 417] was 2.65^[a].
For `CCOC(=O)C(C#N)=C(NC(C)C1CC1)c1cccnc1C(F)(F)F` (stereo not drawn) [Compound 892], the lipophilicity (Log P) was 3.35^[a].
Consider `CCOC(=O)C(C#N)=C(NC(C)COc1ccccc1Cl)c1cccnc1Cl` (stereo not drawn) [Compound 1164], for which the “Log P” value was 3.78^[a].
Still for that read-out and setting: then `CCOC(=O)C(C#N)=C(NC(c1cc2ccccc2s1)C(F)(F)F)c1sccc1C(F)(F)F` (stereo not drawn) [Compound 107], with 4.89^[a].
`CCOC(=O)C(C#N)=C(NC(C(=O)OCC)c1ccccc1)c1cn(C)nc1C(F)F` (stereo not drawn) [Compound 1349]: the “Log P” value was 3.25^[a].
As for `CCOC(=O)C(C#N)=C(NC(C)C1CCC1)c1cn(C)nc1C(Cl)Cl` (racemic) [Compound 1561], the “Log P” value is 3.67^[a].
For `COC(=O)C(C#N)=C(NCc1nc2ccccc2s1)c1sc(C)nc1C(F)(F)F` [Compound 184], the log partition coefficient (Log P) was 3.15^[a].
On to `CCOC(=O)C(C#N)=C(NCc1nc(C)cs1)c1sc(C)nc1C(F)(F)F` [Compound 195], for which the log partition coefficient (Log P) is 2.9^[a].
`CCOC(=O)C(C#N)=C(NC(C)(C)c1ccc(OC)cc1)c1cn(C)nc1C(F)F` [Compound 1229]: the log partition coefficient (Log P) is 3.35^[a].
Take `CCOC(=O)C(C#N)=C(NC(C)CC(C)C)c1sccc1C(F)(F)F` (racemic) [Compound 781]: the log partition coefficient (Log P) was 4.54^[a].
As for `CCOC(=O)C(C#N)=C(NCc1ncc(C)s1)c1sccc1Br` [Compound 220], the lipophilicity (Log P) was 3.04^[a].
For `CCOC(=O)C(C#N)=C(NC(C)CON=C(C)c1ccccc1)c1cn(C)nc1C(F)F` (stereo not drawn) [Compound 1112], the “Log P” value is 3.83^[a].
For the compound `CCOC(=O)C(C#N)=C(NC(C)c1nc(C)cs1)c1sccc1Br` (single isomer, unassigned) [Compound 167], the lipophilicity (Log P) is 3.44^[a].
Take `CCOC(=O)C(C#N)=C(NC(C)c1ccccn1)c1cn(C)nc1C(F)F` (stereo not drawn) [Compound 325]: the log partition coefficient (Log P) was 2.39^[a].
Take `CCOC(=O)C(C#N)=C(NC(C)c1cccc2ccccc12)c1nc(Cl)ccc1Cl` (stereo not drawn) [Compound 1]: the “Log P” value was 4.4^[a].
Regarding `C#CC(C)NC(=C(C#N)C(=O)OCC)c1cn(C)nc1C(F)F` (stereo not drawn) [Compound 1049], the “Log P” value was 2.44^[a].
Regarding `CCOC(=O)C(C#N)=C(Nc1cccc(SC)c1)c1sccc1Br` [Compound 491], the “Log P” value was 3.96^[a].
In the case of `CCOC(=O)C(C#N)=C(NC(C)c1nc(C)c(C)s1)c1c(C)nn(C)c1F` (racemic) [Compound 45], the lipophilicity (Log P) is 2.94^[a].
Still for that read-out and setting: the value for `CCOC(=O)C(C#N)=C(NCc1nccs1)c1cnc(Cl)cc1Cl` [Compound 227] was 2.68^[a]; that for `CCNC(=O)C(C#N)=C(NC(C)C(C)C)c1ccnc(Cl)c1F` (stereo not drawn) [Compound 1316] was 3.44^[a]; that for `CCCCCC(C)NC(=C(C#N)C(=O)OCC)c1sc(C)nc1C(F)(F)F` (stereo not drawn) [Compound 856] was 4.81^[a].
Turning to `C#CCC(C#N)NC(=C(C#N)C(=O)OCC)c1cn(C)nc1C(F)F` (stereo not drawn) [Compound 1220], the “Log P” value was 2.33^[a].
On to `CCOC(=O)C(C#N)=C(NCc1ccc(C)c(C)n1)c1cn(C)nc1C(Cl)Cl` [Compound 1575], for which the lipophilicity (Log P) was 2.07^[a].
Turning to `CCOC(=O)C(C#N)=C(NC(C)c1ccc(F)cc1)c1cn(C)nc1C(F)F` (mixture of isomers) [Compound 454], the “Log P” value is 3.21^[a].

Staying with this series, now noted: pH 7.5.
`CCCCCCC(C)NC(=C(C#N)C(=O)OCC)c1cccnc1Cl` (racemic) [Compound 819]: the log partition coefficient (Log P) is given as 4.55.
The same measure, in the same setting: then `CC(C)C(C)NC(=O)C(C#N)=C(NC(C)C(C)C)c1cccnc1Cl` (stereo not drawn) [Compound 1283], with 4.02^[c]; 4.02^[b]; and `CC(C)C(C)NC(=C(C#N)C(=O)NC1CS(=O)(=O)C1)c1cccnc1Cl` (stereo not drawn) [Compound 1469], with 2.29; and `COC(=O)C(C#N)=C(NC(C)c1nc(C)c(C)s1)c1cccnc1Cl` (stereo not drawn) [Compound 19], with 2.69.
As for `CCOC(=O)C(C#N)=C(NC(C)CSC#N)c1cccnc1Cl` (stereo not drawn) [Compound 1109], the lipophilicity (Log P) worked out at 2.35.
Take `CC(NC(=C(C#N)C(=O)OC1CCC1)c1cccnc1Cl)C1CC1` (mixture of isomers) [Compound 1245]: the “Log P” value worked out at 3.46.
Regarding `CC(C)OC(=O)C(C#N)=C(NC(C)C(C)C)c1cccnc1Cl` (stereo not drawn) [Compound 946], the log partition coefficient (Log P) was 3.69.
